From patent US20220226484A1, “THERAPEUTIC PEPTIDES” (COHBAR, INC., priority 2019, published 2022)
Positions of bridges follow the written chain, without caps; N, C: chain ends. Non-standard residues stand in square brackets, D forms with d. Primed or numbered codes have the meaning given here. Chains are numbered I, II in the order given. No end group written: not given here. PEG12′ = not defined here

Experiments:
A172 Cells = assay: Cell viability, PrestoBlue Assay; format: cell-based, human; details: peptide 10 μM, 18-20 hours, relative to 0.1% DMSO control
Method: The effect of the peptides on cell viability can be assessed in cultured cells using suitable assay of viability such as the PrestoBlue® assay (Thermo Fisher Scientific, Waltham, Mass.). Peptides were initially prepared as 10 mM stock in DMSO and tested at a final concentration of 10 μM (0.1% DMSO). […] PrestoBlue Assay Reagent was purchased from Thermo Fisher Scientific. A172 human brain glioblastoma cell line was purchased from American Type Culture Collection (Manassas, Va.). A172 cells were grown in DMEM supplemented with 10% FBS with 100 IU/ml penicillin and 100 μg/ml streptomycin. Cultures were maintained at 37° C. in a humidified atmosphere of 5% CO2/95% air. A172 cells were seeded at 8,000 cells per well on 96-well plates. […] Cell viability was determined using a PrestoBlue Assay reagent […] according to the manufacturer's instructions. Absorption for each sample well on the plate was measured using a Cytation 3 plate reader at 560 nm and 590 nm (BioTek, Winooski, Vt.). Activity was calculated relative to 0.1% DMSO untreated control. Treatment with 0.1% DMSO alone was used as the cell viability activity control. The relative standard deviation of the DMSO control was <5%.

C2C12 Mouse Myoblasts = assay: Glucose utilization; format: cell-based; details: peptide 10 μM, 18-22 hours, relative to 0.1% DMSO treated control
Method: The effect of the peptides on glucose metabolism can be assessed using an assay of glucose utilization in cultured cultured cells such as mouse myoblasts. Peptides were initially prepared as 10 mM stock in DMSO and used at a final concentration of 10 μM (0.1% DMSO). C2C12 mouse myoblast cell line was purchased from American Type Culture Collection (Manassas, Va.). C2C12 cultures were maintained at 37° C. in a humidified atmosphere of 5% CO2/95% air with medium changes every second day. C2C12 cells were grown in DMEM (1 g/L glucose) supplemented with 10% FBS with 100 IU/ml penicillin and 100 μg/ml streptomycin. C2C12 cells were seeded at 7,000 cells per well on 96-well plates and cultured to confluence. Once the cell reached confluence the media was changed to DMEM (1 g/L glucose) supplemented with 2% HS with 100 IU/ml penicillin and 100 μg/ml streptomycin and maintained at 37° C. in a humidified atmosphere of 5% CO2/95% air. 5 days post-induction of differentiation fresh DMEM (1 g/L glucose) supplemented with 2% HS with 100 IU/ml penicillin and 100 μg/ml streptomycin was added to cultures. Cells were maintained at 37° C. in a humidified atmosphere of 5% CO2 and 95% air for 5 hours. After 5 hours test peptides at 10 μM or controls (0.5 mM or 1 mM metformin in 1% DMSO) prepared in fresh differentiation medium were added to cells and the cultures were maintained at 37° C. in a humidified atmosphere of 5% CO2/95% air for 18-22 hours. At the end of the incubation culture media was removed from the cells and the remaining glucose concentration was measured using a Glucose Assay kit (Abcam) according to the manufacturer's instructions, using a Cytation 3 plate reader at 570 nm (BioTek, Winooski, Vt.). Glucose concentrations in the medium were calculated relative to 0.1% DMSO treated control cells. The relative standard deviation of the result for the 0.1% DMSO treated control was <20%. Metformin was used as a positive control for reduction of glucose levels (increased glucose utilization glucose levels for treatment with metformin (1 mM) treatment were <20% of the 0.1% DMSO treated control value. The results are reported in Table 7.

human PC-3 tumor cells = assay: Mouse PC-3 xenograft model of prostate cancer; format: in vivo; details: 5 mg/kg daily intraperitoneal
Method: Male BALB/c nude mice, 6-7 weeks of age, 20±2 g were inoculated subcutaneously in the right lower flank with a single volume of 0.1 ml of cell suspension containing about 1×10^7 human PC-3 tumor cells. Animals were weighed and randomized into treatment groups when the mean tumor size was around 130 mm^3. Groups of 10 animals received daily injections of test article (5 mg/kg) by intraperitoneal administration. Tumor size was measured twice per week in 2 dimensions using a calipers and tumor volume calculated by standard methods. The study was concluded on day 21 post initial-dosing (day 0).

[1] = system: DSS-induced colitis in female C57BL/6NTac mice; assay: DSS-induced colitis mouse model of inflammatory bowel disease; format: in vivo; details: 3% DSS 8 days; peptides 10 mg/kg/day intraperitoneal; CsA 80 mg/kg/day oral; AUC over 8 days
Method: The effect of the peptides on inflammatory disease can be assessed by monitoring fecal blood, stool consistency, and body weight loss in a DSS-induced colitis mouse model. Colitis was induced in female C57BL/6NTac mice (9-11 weeks old) by continuous ad libitum oral administration of dextran sodium sulfate (DSS) 3% in sterile drinking water for 8 days. Control (No DSS) mice received sterile water instead of DSS solution. Peptides were administered intraperitoneally once daily at 10 mg/kg/day for 8 days in combination with oral DSS. […] Daily assessments included body weight loss score, fecal blood score, stool consistency score, and composite disease activity index (DAI) score, based on the first three parameters combined. Scores recorded on each day over 8 days were used to calculate area under the curve (AUC) values for each endpoint in individual animals.

[2] = system: WI-38 cells (human fetal lung fibroblast cells); assay: Fibroblast-to-myofibroblast transition assay, pro-collagen I alpha 1 expression; format: cell-based; details: 10 μM peptide and 5 ng/ml TGF-β, 48 h, cell lysates
Method: The effect of the peptides on fibrosis can be assessed in vitro using a fibroblast-to-myofibroblast transition (FMT) assay and monitoring pro-collagen I alpha 1 expression produced by cultured cells such as human fetal lung fibroblast cells. Peptides were initially prepared as 10 mM stock solutions in DMSO or 1 mM stock in H2O and were used at a final concentration of 10 μM (0-0.1% DMSO). Transforming Growth Factor beta (TGF-β) was used as a potent inducer of FMT as measured by increased pro-collagen I alpha 1 expression. Human WI-38 cell line was purchased from American Type Culture Collection (Manassas, Va.). WI-38 cells were seeded in complete medium (DMEM/high glucose (4 g/L)+10% Fetal Bovine Serum+1% penicillin/streptomycin) at 40,000 cells/well on 48-well plates and placed at 37° C. in a humidified atmosphere of 5% CO2/95% air. The next day, the medium was removed, cells were rinsed twice with HBSS, and the medium replaced with Serum Restricted Medium (DMEM/high glucose (4 g/L)+0.2% Fetal Bovine Serum+1% penicillin/streptomycin). The cultures were placed at 37° C. in a humidified atmosphere of 5% CO2/95% air overnight. Following 24 h in Serum Restricted Medium, the medium was removed, and the following was added: fresh Serum Restricted Medium alone (no TGF-β control); fresh Serum Restricted Medium containing 5 ng/ml TGF-β (TGF-β control); or fresh Serum Restricted Medium containing 10 μM peptide and 5 ng/ml TGF-β. Cells were incubated for 48 h at 37° C. in a humidified atmosphere of 5% CO2/95% air, washed twice with cold HBSS and immediately lysed. Lysis and determination of pro-collagen I alpha 1 concentrations in the cell lysates were performed using a Pro-Collagen I Alpha 1 ELISA kit (Abcam; Cambridge, Mass.) according to the manufacturer's instructions; absorbance was measured using a Cytation 3 plate reader at 450 nm (BioTek, Winooski, Vt.).

| Substance | PrestoBlue Assay, Percent of Control Activity (A172 Cells) [%] | Glucose Utilization (glucose in medium), Percent of Untreated Control (C2C12 Mouse Myoblasts) [%] | Procollagen I Alpha 1 Mean (SEM) [2] | other results |
| --- | --- | --- | --- | --- |
| MRVIRMCLGVGLLGDLAG [SEQ ID NO: 2] | 100.0 | 110.9 | – | – |
| RVIRMCLGVGLLGDL(dA)G (RVIRMCLGVGLLGDL[dA]G) [SEQ ID NO: 4] | 97.7 | 107.3 | – | – |
| RVIRMCLGVGLLGDLAG [SEQ ID NO: 3] | 98.9 | 108.0 | – | Mean Tumor Volume (human PC-3 tumor cells; Time 0 Days, N = 10): 131 mm^3; Mean Tumor Volume (human PC-3 tumor cells; Time 4 Days): 136 mm^3; Mean Tumor Volume (human PC-3 tumor cells; Time 7 Days): 203 mm^3; Mean Tumor Volume (human PC-3 tumor cells; Time 11 Days): 270 mm^3; Mean Tumor Volume (human PC-3 tumor cells; Time 14 Days): 400 mm^3; Mean Tumor Volume (human PC-3 tumor cells; Time 18 Days): 596 mm^3; Mean Tumor Volume (human PC-3 tumor cells; Time 22 Days): 806 mm^3 |
| RVIRMCLGVGLLGDLAGK{PEG12} (chain 1 RVIRMCLGVGLLGDLAGK(PEG12′); chain 2 RVIRMCLGVGLLGDLAGK(PEG12′); disulfide I:6-II:6) [SEQ ID NO: 28] | – | – | 1830 (507) pg/mL | Mean (SEM) Body Weight Loss Score AUC [1]: 1.70 (0.63); Mean (SEM) Composite Disease Activity Index (DAI) Score AUC [1]: 16.6 (1.25); Mean (SEM) Fecal Blood Score AUC [1]: 10.3 (0.82); Mean (SEM) Stool Consistency Score AUC [1]: 4.60 (0.74) |
| RVIRMCLNVGLLGEL(dA)G [SEQ ID NO: 5] (RVIRMCLNVGLLGEL[dA]G) | 96.9 | 111.2 | 4200 (597) pg/mL | – |
| RVIRMCLNVGNLGEL(dA)G (RVIRMCLNVGNLGEL[dA]G) [SEQ ID NO: 10] | – | – | 4460 (235) pg/mL | – |
